{
  "source": "patent US20250255883A1",
  "about": "“Compositions and Methods for Treating Aging Hair” (CHL Industries, LLC, priority 2021, published 2025)",
  "test_system": "Normal human keratinocytes (HEKa)",
  "experiment": "Real-time quantitative PCR gene expression in normal human keratinocytes treated for 24 hours",
  "assay_type": "cell-based",
  "settings": "vs. water-treated control",
  "data": [
    {"substance": "diethyl ester of copper (II) chlorin e6 [DECCE6]", "values": [
      {"measurement": "Fold Up- or Down-Regulation 18S", "setting": "gene 18S (housekeeping), 20 ug/mL", "result": 1.2, "unit": "Fold"},
      {"measurement": "Fold Up- or Down-Regulation AQP3", "setting": "gene AQP3, 20 ug/mL", "result": 5.5, "unit": "Fold"},
      {"measurement": "Fold Up- or Down-Regulation AREL1", "setting": "gene AREL1, 20 ug/mL", "result": "−5.8", "unit": "Fold"},
      {"measurement": "Fold Up- or Down-Regulation ARRDC3", "setting": "gene ARRDC3, 20 ug/mL", "result": 1.9, "unit": "Fold"},
      {"measurement": "Fold Up- or Down-Regulation BAMBI", "setting": "gene BAMBI, 20 ug/mL", "result": 1.3, "unit": "Fold"},
      {"measurement": "Fold Up- or Down-Regulation CCL20", "setting": "gene CCL20, 20 ug/mL", "result": 2.6, "unit": "Fold"},
      {"measurement": "Fold Up- or Down-Regulation CDKN1A", "setting": "gene CDKN1A, 20 ug/mL", "result": "−1.4", "unit": "Fold"},
      {"measurement": "Fold Up- or Down-Regulation CSF1", "setting": "gene CSF1, 20 ug/mL", "result": 1.1, "unit": "Fold"},
      {"measurement": "Fold Up- or Down-Regulation CSF2", "setting": "gene CSF2, 20 ug/mL", "result": "−1.1", "unit": "Fold"},
      {"measurement": "Fold Up- or Down-Regulation CXCL1", "setting": "gene CXCL1, 20 ug/mL", "result": 2.7, "unit": "Fold"},
      {"measurement": "Fold Up- or Down-Regulation CXCL2", "setting": "gene CXCL2, 20 ug/mL", "result": 3.0, "unit": "Fold"},
      {"measurement": "Fold Up- or Down-Regulation CXCL3", "setting": "gene CXCL3, 20 ug/mL", "result": "−1.1", "unit": "Fold"},
      {"measurement": "Fold Up- or Down-Regulation CXCL8", "setting": "gene CXCL8, 20 ug/mL", "result": 1.3, "unit": "Fold"},
      {"measurement": "Fold Up- or Down-Regulation CXCL10", "setting": "gene CXCL10, 20 ug/mL", "result": 7.6, "unit": "Fold"},
      {"measurement": "Fold Up- or Down-Regulation CYB561", "setting": "gene CYB561, 20 ug/mL", "result": "−1.2", "unit": "Fold"},
      {"measurement": "Fold Up- or Down-Regulation CYP1A1", "setting": "gene CYP1A1, 20 ug/mL", "result": 2.8, "unit": "Fold"},
      {"measurement": "Fold Up- or Down-Regulation DDX5", "setting": "gene DDX5, 20 ug/mL", "result": 2.1, "unit": "Fold"},
      {"measurement": "Fold Up- or Down-Regulation DEFB1", "setting": "gene DEFB1, 20 ug/mL", "result": 3.4, "unit": "Fold"},
      {"measurement": "Fold Up- or Down-Regulation EPGN", "setting": "gene EPGN, 20 ug/mL", "result": 1.2, "unit": "Fold"},
      {"measurement": "Fold Up- or Down-Regulation FGF2", "setting": "gene FGF2, 20 ug/mL", "result": "−2.1", "unit": "Fold"},
      {"measurement": "Fold Up- or Down-Regulation FOS", "setting": "gene FOS, 20 ug/mL", "result": 15.9, "unit": "Fold"},
      {"measurement": "Fold Up- or Down-Regulation G2E3", "setting": "gene G2E3, 20 ug/mL", "result": 4.1, "unit": "Fold"},
      {"measurement": "Fold Up- or Down-Regulation GDF15", "setting": "gene GDF15, 20 ug/mL", "result": 1.7, "unit": "Fold"},
      {"measurement": "Fold Up- or Down-Regulation GPADH", "setting": "gene GPADH (housekeeping), 20 ug/mL", "result": "−1.9", "unit": "Fold"},
      {"measurement": "Fold Up- or Down-Regulation GPX2", "setting": "gene GPX2, 20 ug/mL", "result": 5.5, "unit": "Fold"},
      {"measurement": "Fold Up- or Down-Regulation HBEGF", "setting": "gene HBEGF, 20 ug/mL", "result": 3.1, "unit": "Fold"},
      {"measurement": "Fold Up- or Down-Regulation HECTD1", "setting": "gene HECTD1, 20 ug/mL", "result": 1.2, "unit": "Fold"},
      {"measurement": "Fold Up- or Down-Regulation HERC1", "setting": "gene HERC1, 20 ug/mL", "result": 3.5, "unit": "Fold"},
      {"measurement": "Fold Up- or Down-Regulation HIF1AN", "setting": "gene HIF1AN, 20 ug/mL", "result": "−1.6", "unit": "Fold"},
      {"measurement": "Fold Up- or Down-Regulation HPRT1", "setting": "gene HPRT1 (housekeeping), 20 ug/mL", "result": 1.6, "unit": "Fold"},
      {"measurement": "Fold Up- or Down-Regulation HSP90B1", "setting": "gene HSP90B1, 20 ug/mL", "result": 1.2, "unit": "Fold"},
      {"measurement": "Fold Up- or Down-Regulation IFI44L", "setting": "gene IFI44L, 20 ug/mL", "result": 3.9, "unit": "Fold"},
      {"measurement": "Fold Up- or Down-Regulation JUN", "setting": "gene JUN, 20 ug/mL", "result": 3.3, "unit": "Fold"},
      {"measurement": "Fold Up- or Down-Regulation JUNB", "setting": "gene JUNB, 20 ug/mL", "result": 1.6, "unit": "Fold"},
      {"measurement": "Fold Up- or Down-Regulation LTB4R", "setting": "gene LTB4R, 20 ug/mL", "result": "−1.3", "unit": "Fold"},
      {"measurement": "Fold Up- or Down-Regulation MAFF", "setting": "gene MAFF, 20 ug/mL", "result": "−1.1", "unit": "Fold"},
      {"measurement": "Fold Up- or Down-Regulation MAP1LC3B", "setting": "gene MAP1LC3B, 20 ug/mL", "result": 1.2, "unit": "Fold"},
      {"measurement": "Fold Up- or Down-Regulation MAPK14", "setting": "gene MAPK14, 20 ug/mL", "result": "−1.7", "unit": "Fold"},
      {"measurement": "Fold Up- or Down-Regulation MGAT1", "setting": "gene MGAT1, 20 ug/mL", "result": "−1.0", "unit": "Fold"},
      {"measurement": "Fold Up- or Down-Regulation MGAT5", "setting": "gene MGAT5, 20 ug/mL", "result": "−1.8", "unit": "Fold"},
      {"measurement": "Fold Up- or Down-Regulation MOGS", "setting": "gene MOGS, 20 ug/mL", "result": "−2.8", "unit": "Fold"},
      {"measurement": "Fold Up- or Down-Regulation N4BP1", "setting": "gene N4BP1, 20 ug/mL", "result": 1.7, "unit": "Fold"},
      {"measurement": "Fold Up- or Down-Regulation NFKBIA", "setting": "gene NFKBIA, 20 ug/mL", "result": 4.6, "unit": "Fold"},
      {"measurement": "Fold Up- or Down-Regulation PELI1", "setting": "gene PELI1, 20 ug/mL", "result": "−1.5", "unit": "Fold"},
      {"measurement": "Fold Up- or Down-Regulation PLAUR", "setting": "gene PLAUR, 20 ug/mL", "result": 2.1, "unit": "Fold"},
      {"measurement": "Fold Up- or Down-Regulation PPP1R15A", "setting": "gene PPP1R15A, 20 ug/mL", "result": 3.2, "unit": "Fold"},
      {"measurement": "Fold Up- or Down-Regulation PTGFRN", "setting": "gene PTGFRN, 20 ug/mL", "result": "−4.6", "unit": "Fold"},
      {"measurement": "Fold Up- or Down-Regulation PTGS2", "setting": "gene PTGS2, 20 ug/mL", "result": "−1.1", "unit": "Fold"},
      {"measurement": "Fold Up- or Down-Regulation PTX3", "setting": "gene PTX3, 20 ug/mL", "result": 1.1, "unit": "Fold"},
      {"measurement": "Fold Up- or Down-Regulation REL", "setting": "gene REL, 20 ug/mL", "result": 1.6, "unit": "Fold"},
      {"measurement": "Fold Up- or Down-Regulation RSAD2", "setting": "gene RSAD2, 20 ug/mL", "result": 1.9, "unit": "Fold"},
      {"measurement": "Fold Up- or Down-Regulation SAMD9L", "setting": "gene SAMD9L, 20 ug/mL", "result": 1.3, "unit": "Fold"},
      {"measurement": "Fold Up- or Down-Regulation SOD2", "setting": "gene SOD2, 20 ug/mL", "result": 1.2, "unit": "Fold"},
      {"measurement": "Fold Up- or Down-Regulation SPRR2B", "setting": "gene SPRR2B, 20 ug/mL", "result": 2.4, "unit": "Fold"},
      {"measurement": "Fold Up- or Down-Regulation TGFB1", "setting": "gene TGFB1, 20 ug/mL", "result": "−1.9", "unit": "Fold"},
      {"measurement": "Fold Up- or Down-Regulation TNF", "setting": "gene TNF, 20 ug/mL", "result": 16.4, "unit": "Fold"},
      {"measurement": "Fold Up- or Down-Regulation TNFAIP3", "setting": "gene TNFAIP3, 20 ug/mL", "result": 2.4, "unit": "Fold"},
      {"measurement": "Fold Up- or Down-Regulation UBE2S", "setting": "gene UBE2S, 20 ug/mL", "result": 2.2, "unit": "Fold"},
      {"measurement": "Fold Up- or Down-Regulation UBE3B", "setting": "gene UBE3B, 20 ug/mL", "result": 1.2, "unit": "Fold"},
      {"measurement": "Fold Up- or Down-Regulation UBE4B", "setting": "gene UBE4B, 20 ug/mL", "result": 1.2, "unit": "Fold"},
      {"measurement": "Fold Up- or Down-Regulation UBE20", "setting": "gene UBE20, 20 ug/mL", "result": 1.8, "unit": "Fold"},
      {"measurement": "Fold Up- or Down-Regulation VCP", "setting": "gene VCP, 20 ug/mL", "result": "−2.0", "unit": "Fold"},
      {"measurement": "Fold Up- or Down-Regulation VEGFA", "setting": "gene VEGFA, 20 ug/mL", "result": 1.5, "unit": "Fold"}
    ]}
  ]
}
